Measured values taken from patent US10188743B2, “Cytisine-linked isoflavonoid antineoplastic agents for the treatment of cancer” (UNIVERSITY OF KENTUCKY RESEARCH FOUNDATION, priority 2016, dated 2019).

Tests used:
[1] = test system: acetyl CoA carboxylase (ACC); test: ACC phosphorylation / activation downstream of AMPK (Western blotting); type: cell-based; settings: PC-3 and LS174T cells
Description: (§1) Biochemistry. Western blotting: Cells were lysed in the appropriate volume of lysis buffer (50 mM HEPES, 100 mM NaCl, 2 mM EDTA, 1% glycerol, 50 mM NaF, 1 mM Na3VO4, 1% Triton X-100, with protease inhibitors). The following antibodies were used: HSD17B4 (GeneTex, GTX103864), AMPK (Cell Signaling, 2532), pAMPK (Cell Signaling, 2535), ACC (Cell Signaling, 3676), pACC (Cell Signaling, 11818), p^70 (Cell Signaling, 2708), p-p^70 (Cell Signaling, 9914), S6 (Cell Signaling, 2217), pS6 (Cell Signaling, 4858), MCCA (GeneTex, GTX110062), tubulin (Hybridoma Bank, E7), Actin (Sigma, A1978), His-tag (BD Pharmingen, 552564).

[2] = target: T1, α,β-dehydrogenase activity of HSD17B4 (Homo sapiens, UniProt P51659); test: HSD17B4 dehydrogenase assay (NADH readout); type: biochemical
T1 construct: His-tag; made in house; host or cells: E. coli BL21 (pET28)
T1 sequence (P51659 1-736): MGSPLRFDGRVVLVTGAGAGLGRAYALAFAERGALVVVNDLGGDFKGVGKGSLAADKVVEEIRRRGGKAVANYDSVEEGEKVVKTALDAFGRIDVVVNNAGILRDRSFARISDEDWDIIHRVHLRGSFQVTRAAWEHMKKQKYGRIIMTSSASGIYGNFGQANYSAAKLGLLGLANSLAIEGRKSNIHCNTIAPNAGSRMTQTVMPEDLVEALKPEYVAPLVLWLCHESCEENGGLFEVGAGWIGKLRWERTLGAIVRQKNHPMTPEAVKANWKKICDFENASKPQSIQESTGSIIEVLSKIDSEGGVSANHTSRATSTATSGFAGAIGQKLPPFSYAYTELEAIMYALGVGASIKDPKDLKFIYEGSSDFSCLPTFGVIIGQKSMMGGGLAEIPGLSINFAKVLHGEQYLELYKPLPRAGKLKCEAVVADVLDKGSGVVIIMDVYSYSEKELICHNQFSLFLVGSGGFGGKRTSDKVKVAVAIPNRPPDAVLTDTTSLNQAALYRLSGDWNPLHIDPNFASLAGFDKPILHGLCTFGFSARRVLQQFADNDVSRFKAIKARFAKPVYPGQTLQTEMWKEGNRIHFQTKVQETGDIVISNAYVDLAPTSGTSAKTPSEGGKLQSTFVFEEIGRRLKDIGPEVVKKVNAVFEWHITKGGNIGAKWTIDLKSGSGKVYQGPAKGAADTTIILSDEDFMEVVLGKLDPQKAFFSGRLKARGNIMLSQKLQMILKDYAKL
From the text: We acquired further evidence along these lines through studies using the N-terminal α,β-dehydrogenase and C-terminal hydratase fragments of HSD17B4 as well as the full-length protein. We evaluated the α,β-dehydrogenase activity using DL-3-hydroxylbutyryl-CoA as a substrate and the conversion of NAD^+ to NADH as a readout. We concomitantly measured the hydratase activity using crotonoyl-CoA as a substrate and the diminished ultraviolet absorption of the α,β-unsaturated thioester chromophore as readout. The full-length protein, as expected, had both enzyme activities (FIGS. 7A and 7B). The C-terminal-truncated fragments N318 and N634 but not the N-terminal-truncation fragment C919 had α,β-dehydrogenase activity (FIG. 7A). The C-terminal fragment N634 and the N-terminal fragment C919, but not the C-terminal fragment N318, had hydratase activity (FIG. 7B), as summarized in FIG. 3A.
The enzymatic activities of HSD17B4 were analyzed using the method reported by Novikov et al. (J. Biol. Chem., 1994, 269, 27125). […] The reaction was quantified by measuring the fluorescent product NADH (excitation: 340 nm; emission 460 nm). […] The reaction was quantified by measuring the remaining substrate using absorbance at 280 nm.

LS174T cells = test: Seahorse XF assay (OCR, ECAR); type: cell-based
From the text: We further characterized the effects of cytisine-linked isoflavonoid 10c on energy metabolism using a Seahorse XF assay (FIG. 4D-F) that measured oxygen consumption rate (OCR), which was an indicator of mitochondrial respiration, and measured extracellular acidification rate (ECAR), which was largely the result of glycolysis. […] Similar results were found in DLD-1 colon cancer cells and PC-3 prostate cancer cells (FIGS. 8 and 9). These OCR findings were consistent with the prior evaluation of these cytisine-linked isoflavonoids that targeted the hydratase activity in HSD17B4, inhibited VLCFA beta-oxidation, depressed acetyl CoA generation, decreased the ratio of ATP/AMP, and triggered AMPK activation (FIG. 5).
Seahorse assay: 3×10^4 cells were seeded in XF96 Cell Culture microplate (80 μL of 3.75×10^5 cells/m:). On the next day, cells were treated with DMSO or inhibitors and analyzed using the Seahorse analyzer in Redox Metabolism Shared Resource Facility (RM SRF) at the Markey Cancer Center.

[3] = test system: LS174T colon cancer cells; test: Fatty acid analysis of treated cells; type: cell-based
Description: Fatty acid analysis: Free and total fatty acids (after saponification) were prepared as reported previously (Spencer et al. Diabetes 62(5):1709-1717) converted to N-(4-aminomethylphenyl)pyridinium derivatives (Bollinger et al. J Lipid Res 54(12):3523-3530) and quantitated HPLC electrospray ionization tandem mass spectrometry with quantitation accomplished using exogenously added heptadecanoic acid as a recovery standard and reference to offline calibrations generated using authentic fatty acid standards.

S6 = S6 phosphorylation, mTor pathway (Western blotting); type: cell-based; settings: PC-3 and LS174T cells
Description: as §1

LS174T cancer cells = test: Acetyl-CoA analysis of treated cells; type: cell-based
Description: Cell Metabolism. Acetyl-CoA analysis: Cells grown in 6 cm plates were treated with DMSO or inhibitors, and harvested in lysis buffer (20 mM Tris pH 7.5, 150 mM NaCl, 1 mM EDTA, 1 mM EGTA, 1% Triton X-100, 2.5 mM sodium pyrophosphate, 1 mM Na3VO4, 1 ug/mL Leupeptin, 1 mM PMSF and 1:100 Protease inhibitor cocktail). Supernatants were analyzed using PicoProbe Acetyl CoA kit (Abcam, ab87546).

Structure (SMILES): O=c1c(-c2ccc(Cl)cc2)coc2cc(OCCN3C[C@@H]4C[C@@H](C3)c3cccc(=O)n3C4)ccc12 [Compound 10c, (1 S,5S)-3-(2-((3-(4-chlorophenyl)-4-oxo-4H-chromen-7-yl)oxy)ethyl)-3,4,5,6-tetrahydro-1H-1,5-methanopyrido[1,2-a][1,5]diazocin-8(2H)-one]
- ACC phosphorylation [1]: induced appreciable ACC phosphorylation
- effect on α,β-dehydrogenase activity [2]: no effect
- respiration rates (LS174T cells): significantly reduced the respiration rates
- levels of ATP production (LS174T cells; OCR and ECAR assays): reduced the levels of ATP production
- fatty acid levels [3]: reduced the levels of a number of fatty acids
- phosphorylation of S6 (S6): inhibited the phosphorylation
- level of acetyl CoA (LS174T cancer cells): decreased the levels
